Measured values published in PubChem BioAssay AID330 (DTP/NCI, 2004).
Several values for one entry are separate records, joined by “and”; a condition that tells them apart may be missing. Equal entries are not always repeated. Inconclusive results and toxic doses are left out. The calls were made as follows: active = survival T/C of 150% or more; inactive = T/C below 125% in these data.

Test system: P388 leukemia ip, CD2F1 mice, survival T/C
Experiment: NCI In Vivo Anticancer Drug Screen. Data for tumor model P388 Leukemia (intraperitoneal) in CD2F1 (CDF1) mice
Settings: endpoint: median survival time, higher = longer survival
In short: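 Mice carrying the transplanted tumor received test compound or vehicle. Survival was recorded in each group, and the value is the treated-group measurement divided by that of the vehicle-treated control group.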

[1] = dose: 100.0 mg/kg/injection, schedule: Q04DX002 (ip), vehicle: Klucel (hydroxypropylcellulose) (HPC)
[2] = dose: 200.0 mg/kg/injection, schedule: Q04DX002 (ip), vehicle: Klucel (hydroxypropylcellulose) (HPC)
[3] = dose: 400.0 mg/kg/injection, schedule: Q04DX002 (ip), vehicle: Klucel (hydroxypropylcellulose) (HPC)
[4] = dose: 25.0 mg/kg/injection, schedule: Q01DX009 (ip), vehicle: saline
[5] = dose: 50.0 mg/kg/injection, schedule: Q01DX009 (ip), vehicle: saline
[6] = dose: 25.0 mg/kg/injection, schedule: Q01DX009 (ip), vehicle: Klucel (hydroxypropylcellulose) (HPC)
[7] = dose: 50.0 mg/kg/injection, schedule: Q01DX009 (ip), vehicle: Klucel (hydroxypropylcellulose) (HPC)
[8] = dose: 100.0 mg/kg/injection, schedule: Q01DX009 (ip), vehicle: Klucel (hydroxypropylcellulose) (HPC)
[9] = dose: 200.0 mg/kg/injection, schedule: Q01DX009 (ip), vehicle: Klucel (hydroxypropylcellulose) (HPC)
[10] = dose: 60.0 mg/kg/injection, schedule: Q01DX005 (ip), vehicle: saline with Tween-80
[11] = dose: 120.0 mg/kg/injection, schedule: Q01DX005 (ip), vehicle: saline with Tween-80
[12] = dose: 50.0 mg/kg/injection, schedule: Q01DX005 (ip), vehicle: saline with Tween-80
[13] = dose: 100.0 mg/kg/injection, schedule: Q01DX005 (ip), vehicle: saline with Tween-80
[14] = dose: 200.0 mg/kg/injection, schedule: Q01DX005 (ip), vehicle: saline with Tween-80

Measured: T/C

CC(C)(C)C1(C#N)C(=O)N(c2ccc(N3C(=O)C(C#N)(C(C)(C)C)C34c3ccccc3-c3ccccc34)cc2)C12c1ccccc1-c1ccccc12 (stereo unspecified)
inactive: dose: 100.0 mg/kg/injection, schedule: Q04DX003 (ip), vehicle: Klucel (hydroxypropylcellulose) (HPC) 93 % of control | dose: 200.0 mg/kg/injection, schedule: Q04DX003 (ip), vehicle: Klucel (hydroxypropylcellulose) (HPC) 93 % of control | dose: 400.0 mg/kg/injection, schedule: Q04DX003 (ip), vehicle: Klucel (hydroxypropylcellulose) (HPC) 91 % of control

O=C1CC2(CCCCC2)C(=O)N1c1ccc(-c2ccc(N3C(=O)CC4(CCCCC4)C3=O)cc2)cc1
inactive: [1] 89 % of control | [2] 88 % of control | [3] 91 % of control

CC1=C2C(=CC(C)(C)[C@@H]2O)C(=O)[C@](C)(O)C12CC2
inactive: dose: 0.26 mg/kg/injection, schedule: Q01DX010 (ip), vehicle: saline 110 % of control | dose: 0.4 mg/kg/injection, schedule: Q01DX010 (ip), vehicle: saline 110 % of control | dose: 0.6 mg/kg/injection, schedule: Q01DX010 (ip), vehicle: saline 115 % of control | dose: 45.0 micrograms/kg/injection, schedule: Q01DX010 (ip), vehicle: saline 100 % of control | dose: 90.0 micrograms/kg/injection, schedule: Q01DX010 (ip), vehicle: saline 104 % of control | dose: 180.0 micrograms/kg/injection, schedule: Q01DX010 (ip), vehicle: saline 113 % of control

C#CCn1cc(F)c(=O)n(CC#C)c1=O
inactive: dose: 30.0 mg/kg/injection, schedule: Q04DX002 (ip), vehicle: saline with Tween-80 101 % of control | dose: 60.0 mg/kg/injection, schedule: Q04DX002 (ip), vehicle: saline with Tween-80 99 % of control | dose: 120.0 mg/kg/injection, schedule: Q04DX002 (ip), vehicle: saline with Tween-80 98 % of control | dose: 150.0 mg/kg/injection, schedule: Q04DX002 (ip), vehicle: saline with Tween-80 107 % of control | dose: 240.0 mg/kg/injection, schedule: Q04DX002 (ip), vehicle: saline with Tween-80 100 % of control | dose: 300.0 mg/kg/injection, schedule: Q04DX002 (ip), vehicle: saline with Tween-80 104 % of control | dose: 600.0 mg/kg/injection, schedule: Q04DX002 (ip), vehicle: saline with Tween-80 98 % of control

Cc1noc2nc(-c3ccccc3)cc(N3CCN(C)CC3)c12
inactive: dose: 12.5 mg/kg/injection, schedule: Q01DX005 (ip), vehicle: other 107 % of control | dose: 25.0 mg/kg/injection, schedule: Q01DX005 (ip), vehicle: other 97 % of control | dose: 50.0 mg/kg/injection, schedule: Q01DX005 (ip), vehicle: other 97 % of control | dose: 100.0 mg/kg/injection, schedule: Q01DX005 (ip), vehicle: other 101 % of control | dose: 200.0 mg/kg/injection, schedule: Q01DX005 (ip), vehicle: other 104 % of control

OCCSCc1cnc2ccccn12
inactive: [4] 105 % of control | [5] 100 % of control

CC12OC1(C)C1C(=O)OCC1C2=O (stereo unspecified)
inactive: [6] 105 % of control | [7] 96 % of control | [8] 97 % of control | [9] 117 % of control

CCNCc1cc(Nc2nc(NC3CCC(N(C)C)CC3)c3ccccc3n2)ccc1OC (stereo unspecified)
inactive: dose: 5.0 mg/kg/injection, schedule: Q01DX009 (ip), vehicle: saline sonified 100 % of control | dose: 10.0 mg/kg/injection, schedule: Q01DX009 (ip), vehicle: saline sonified 109 % of control | dose: 20.0 mg/kg/injection, schedule: Q01DX009 (ip), vehicle: saline sonified 113 % of control

O=c1cccccc1[O][Sn]([Cl])([Cl])[O]c1cccccc1=O
inactive: dose: 25.0 mg/kg/injection, schedule: Q01DX001 (ip), vehicle: Klucel (hydroxypropylcellulose) (HPC) 97 % of control | dose: 50.0 mg/kg/injection, schedule: Q01DX001 (ip), vehicle: Klucel (hydroxypropylcellulose) (HPC) 99 % of control | dose: 100.0 mg/kg/injection, schedule: Q01DX001 (ip), vehicle: Klucel (hydroxypropylcellulose) (HPC) 99 % of control

CC(=O)OC1=C(Br)CCc2ccccc21
inactive: dose: 3.12 mg/kg/injection, schedule: Q01DX009 (ip), vehicle: DMSO 103 % of control | dose: 6.25 mg/kg/injection, schedule: Q01DX009 (ip), vehicle: DMSO 108 % of control | dose: 12.5 mg/kg/injection, schedule: Q01DX009 (ip), vehicle: DMSO 90 % of control and 96 % of control | dose: 25.0 mg/kg/injection, schedule: Q01DX009 (ip), vehicle: DMSO 93 % of control

O=P(C(=S)NC1CC2C=CC1C2)(c1ccccc1)c1ccccc1 (stereo unspecified)
inactive: [6] 95 % of control | [7] 100 % of control and 88 % of control | [8] 91 % of control | [9] 90 % of control

Nc1ccccc1S(=O)(=O)Nc1c(N)nc(SCC(=O)O)[nH]c1=O
inactive: dose: 15.0 mg/kg/injection, schedule: Q01DX005 (ip), vehicle: saline with Tween-80 98 % of control and 101 % of control | dose: 30.0 mg/kg/injection, schedule: Q01DX005 (ip), vehicle: saline with Tween-80 100 % of control and 95 % of control | [10] 100 % of control and 95 % of control | dose: 120.0 mg/kg/injection, schedule: Q01DX005 (ip), vehicle: Klucel (hydroxypropylcellulose) (HPC) 87 % of control and 96 % of control | [11] 99 % of control and 98 % of control | dose: 240.0 mg/kg/injection, schedule: Q01DX005 (ip), vehicle: Klucel (hydroxypropylcellulose) (HPC) 98 % of control and 93 % of control

COC(=O)C1(C(C(=O)c2ccccc2)c2ccccc2)NC(=S)NC(=O)C1C#N (stereo unspecified)
inactive: [10] 100 % of control | [11] 105 % of control | dose: 240.0 mg/kg/injection, schedule: Q01DX005 (ip), vehicle: saline with Tween-80 100 % of control

Cc1cccc(C)c1NC(=O)/C(Cl)=C1/Sc2ccccc2NC1=O
inactive: [12] 105 % of control | [13] 97 % of control | [14] 88 % of control

CCCNC(=O)CCC(NS(=O)(=O)c1ccccc1)C(=O)O (stereo unspecified)
inactive: [1] 91 % of control | [2] 102 % of control | [3] 96 % of control

Nc1nc2[nH]c(=S)[nH]c2c(=O)[nH]1
inactive: [12] 92 % of control | [13] 92 % of control | [14] 95 % of control

N#Cc1ccc(OC(=O)Nc2ccccc2C(F)(F)F)cc1
inactive: [10] 86 % of control | [11] 87 % of control

NCCNCC[OH2+].NCCNCC[OH2+].[Ni+2].[O-][Cl+3]([O-])([O-])[O-]
inactive: dose: 12.5 mg/kg/injection, schedule: Q01DX009 (ip), vehicle: saline 100 % of control | [4] 93 % of control | [5] 106 % of control and 93 % of control

CC[C@@H]1O[C@H]2O[C@@H](/C=C/C=C/C=C/c3oc(=O)cc(OC)c3C)[C@@H](O)[C@@]2(C)[C@]1(C)O
inactive: dose: 0.5 mg/kg/injection, schedule: Q01DX009 (ip), vehicle: Klucel (hydroxypropylcellulose) (HPC) 107 % of control | dose: 1.0 mg/kg/injection, schedule: Q01DX009 (ip), vehicle: Klucel (hydroxypropylcellulose) (HPC) 106 % of control | dose: 2.0 mg/kg/injection, schedule: Q01DX009 (ip), vehicle: Klucel (hydroxypropylcellulose) (HPC) 98 % of control

CCCCOP(O)(=S)OCCCC.[Tb]
inactive: dose: 100.0 mg/kg/injection, schedule: Q04DX002 (ip), vehicle: saline with Tween-80 100 % of control | dose: 200.0 mg/kg/injection, schedule: Q04DX002 (ip), vehicle: saline with Tween-80 96 % of control | dose: 400.0 mg/kg/injection, schedule: Q04DX002 (ip), vehicle: saline with Tween-80 95 % of control

CN(C)CC/C([O-])=N/[n+]1c2c(nc3ccccc31)-c1cccc3cccc-2c13
inactive: [6] 109 % of control | [7] 111 % of control | [8] 116 % of control
